These results are taken from patent publication US20240418723A1, “SEQUENTIAL TREATMENTS AND BIOMARKERS TO REVERSE RESISTANCE TO KINASE INHIBITORS” (Queen Mary University of London, priority 2021, published 2024).

SMILES strings stand for the structures.

One data set concerns primary AML cells. The data set can be described thus: Ex-vivo sequential treatment of primary AML blasts co-cultured on MS-5 stromal feeder layer, Guava ViaCount, CDI. It counts as cell-based, human. The method, then:
We then examined whether, besides cell lines, LSD1i could also sensitise primary AML to kinase inhibitor treatment. We obtained CDI values from 17 AML blasts samples (6 normal, 5 complex and 6 MLL karyotypes) treated for 5 days with LSD1i followed by 3 days with either MEKi, PKC/FLT3i or DMSO control (FIGS. 2, H and I). Primary AML cells were cultured and treated in the presence of a feeder layer of bone marrow stromal cells, which, under control conditions, kept cells viable and proliferating throughout the course of the experiment.
(§1) Umbilical cord bloods were purchased from Anthony Nolan. Mononuclear cells (MNCs) were isolated by Ficoll prior red blood cells (RBC) lysis buffer (BioLegend, catalog #420301). Cells were then stained with CD34 immunomagnetic positive selection kit (EasySep™ Human CD34 Positive Selection Kit II, StemCell technologies, catalog #17856, according to manufacturer instructions). Purity of CD34^+ cells isolated from MNCs was assessed by flow cytometry prior to long term storage in liquid nitrogen. For AML samples, patients gave informed consent for the storage and use of their blood cells for research purposes. Experiments were performed in accordance with the Local Research Ethics Committee, as previously described. Mononuclear cells from peripheral blood or bone marrow biopsies were isolated in the BCI tissue bank facility and stored in liquid nitrogen.
Cell vials were thawed in 37° C. water bath and contents transferred to 15 mL Falcon tubes containing 4 mL of pre-warmed FBS with 40 ng/mL DNase (Sigma Aldrich D4513-1VL). Suspension was centrifuged at 300×g for 8 minutes, then supernatant was removed and cells resuspended in MyeloCult H5100 medium (Stemcell Technologies #05150) containing 1% P/S and supplemented with human IL-3 (Peprotech #200-03), human G-CSF (Peprotech #300-23) and human TPO (#300-18), each to a final concentration of 20 ng/mL. […]

Data set [1] has as its system CD34-positive human haematopoietic cells. The data set can be described thus: FACS analysis of healthy CD34-positive haematopoietic cells after LSD1i and MEKi sequential treatment. In kind it is cell-based.
Description: We next tested whether the LSD1i->MEKi sequential treatment may be affecting healthy human haematopoietic (CD34-positive) cells. We observed an increase in the expression of differentiation markers, such as CD11b and CD14, but no effect on the proportion of CD34-positive cells as a result of treatment with LSD1i (FIG. 11, A to C).
as §1
For the establishment of the feeder layer, MS-5 cells were plated onto 6-well plates (for the co-culture with CD34+ cord blood cells) or 96-well plates (for the co-culture with primary AML cells) at a density of 5-10,000 cells/cm^2 (48,000 cells for each well of a 6-well plate, or 3,200 cells for each well of a 96-well plate) with IMDM medium. Cells were then incubated at 37° C. for 48 hours, or until a confluency of approximately 70% was reached, after which they were irradiated with an X-ray source at 680 cGy. Following irradiation, the growth medium was removed and replaced with complete H5100 medium, and cell were incubated at 37° C. for a further 24 hours.
Following recovery, cord blood-derived CD34+ cells or primary AML cells were added to the plates containing the established MS-5 feeder layers. CD34+ cells were added at a density of 20,000 cells/well of a 6-well plate, whilst primary AML cells were added at 8,300 cells/well of a 96-well plate. Cells were then left to incubate at 37° C. and to recover for 4 days, after which treatments were started. […] Following treatment, CD34+ cells were harvested by collecting culture medium in FACS tubes. Adherent cells were detached by briefly incubating with trypsin-EDTA, then also added to the respective FACS tubes. Cells were centrifuged at 300×g for 8 minutes, the supernatant was removed and cells were resuspended in 1 mL PBS+2% FBS, then processed for FACS analysis as described below. For primary AML, cells were resuspended and transferred to separate 96-well plates, after which they were processed for Guava ViaCount analysis, as described below. […]

The next data set concerns AML cell lines. In words: Small-scale drug screens: epigenetic antagonist 5 days followed by kinase inhibitor 3 days, cell viability/proliferation, CDI. In kind it is cell-based. The method, then: The Bliss independence model was used to derive coefficients of drug interaction (CDI) values, where CDI <1 indicates significant priming by the […] (synergistic effect).
For the proliferation/viability assays, cells were seeded in T75 flasks (0.5×10^6 cells/mL of RPMI/FBS medium) and exposed for 5 days to either vehicle or epigenetic modifier. Unless otherwise specified, the final concentration for GSK2879552 (LSD1i), […] (EZH2i), pinometostat (DOT1Li) and ATRA was 1 μM while for decitabine (DNMTAi) and vorinostat (HDACi) was 100 nM; all epigenetic inhibitors were diluted in DMSO, while ATRA was diluted in Et-OH. Vehicle concentration was kept at 0.1%. […] The final concentration of DMSO was kept at 0.1%. Finally, cells were transferred to 96-well plates (100 μL per well in 3 technical replicates per condition) and cell viability and proliferation were assessed using Guava and ApoTox-Glo Triplex analyses, as indicated below.
For Guava analysis, cells were stained with Guava ViaCount reagent (Luminex #4000-0040) in 96-well plates, by mixing 150 μL of cell suspension with 75 μL of reagent, and left to incubate for a minimum of 10 minutes in the dark, after which they were processed through a Guava easyCyte flow cytometer (Luminex #0500-5005). Flow cytometry data were analysed using CytoSoft (v2.5.7). […]

Setting [2] is: LSD1i 5 days, healthy CD34-positive cells co-cultured with MS5 (FIG. 11).

`O=C(O)c1ccc(CN2CCC(CN[C@@H]3C[C@H]3c3ccccc3)CC2)cc1` [GSK2879552]: the “number of primary AML cases primed for MEKi treatment” value with primary AML cells (LSD1i 5 days then MEKi 3 days, of the 17 primary AML cases (FIG. 2H)) was 8. The “number of primary AML cases primed for PKC/FLT3i treatment” value with primary AML cells (LSD1i 5 days then PKC/FLT3i (midostaurin) 3 days, out of the 14 tested (FIG. 2I)) is on record as 5. Also, the “proportion of AML cases in which LSD1i->MEKi sequential treatment may be particularly effective” value with primary AML cells (LSD1i->MEKi sequential treatment, primary AML) is reported as “about 50%”. Moreover, the “effect on normal stem/progenitor cell compartment” value in data set [1] (LSD1i 5 days then MEKi 3 days) is recorded as “preserved the normal stem/progenitor cell compartment”. The “apoptosis (Annexin V) in healthy haematopoietic cells” value in data set [1] (LSD1i 5 days then MEKi 3 days, mostly restricted to the more mature CD34-negative cells (FIG. 11D, 12)) is on record as “increased apoptosis”. In addition, in data set [1] (setting [2]), the “expression of differentiation markers, such as CD11b and CD14” value is reported as “increase”; the “proportion of CD34-positive cells” value was “no effect”. Besides, the “number of AML cell lines sensitised to midostaurin, pictilisib or trametinib” value in the data set with AML cell lines (LSD1i pre-treatment, out of the 12 AML cell lines tested (FIG. 2D)) was 9. Besides, the “-Log2 CDI (coefficient of drug interaction), sensitisation to kinase inhibitor treatment” value in the data set on AML cell lines (epigenetic antagonist 5 days, then MEK, mTOR or PKC inhibitor 3 days, cell viability, Bliss independence, CDI <1 = synergistic (FIG. 2C)) is recorded as “one of the most potent sensitisers to kinase inhibitor treatment”.
